Results on 23 molecules are retold here after patent US12552804B2, “Tricyclic heterocycles as FGFR inhibitors” (Incyte Corporation, priority 2019, dated 2026).

The structures appear in SMILES notation.

The assay has as its target wild-type un-phosphorylated FGFR3 protein (Homo sapiens, UniProt P22607). Briefly: FGFR Enzymatic Assay (FRET detection of peptide phosphorylation). The class given is biochemical. Conditions: pre-incubated for 4 hours, read-out: FGFR3_Ki. As to the method:
The inhibitor potency of the exemplified compounds was determined in an enzyme discontinuous assay that measures peptide phosphorylation using FRET measurements to detect product formation. Inhibitors were serially diluted in DMSO and a volume of 0.2 μL was transferred to the wells of a 384-well plate. A 5 μL/well volume of enzyme isoforms of FGFR (−1, −2, −3 wild-type and mutant isoforms, −4) including phosphorylated and un-phosphorylated proteins diluted in assay buffer (50 mM HEPES, 10 mM MgCl2, 1 mM EGTA, 0.01% Tween-20, 5 mM DTT, pH 7.5) was added to the plate and pre-incubated with inhibitor for 5 to 15 minutes at ambient temperature. Appropriate controls (enzyme blank and enzyme with no inhibitor) were included on the plate. […] The ATP Km values were pre-determined in a separate series of experiments. The reaction plate was incubated at 25° C. for 1 hr and the reactions were ended with the addition of 5 μL/well of quench solution (50 mM Tris, 150 mM NaCl, 0.5 mg/mL BSA, pH 7.8; 45 mM EDTA, 600 nM staurosporin, with Perkin Elmer Lance Reagents at 3.75 nM Eu-antibody PY20 and 180 nM APC-Streptavidin). The plate was allowed to equilibrate for ˜10 minutes at ambient temperature before scanning on a PheraStar plate reader (BMG Labtech) instrument.
Either GraphPad prism or XLfit was used to analyze the data. The IC50 values were derived by fitting the data to a four parameter logistic equation producing a sigmoidal dose-response curve with a variable Hill coefficient. Prism equation: Y=Bottom+(Top−Bottom)/(1+10^((LogIC50−X)*Hill slope)); XLfit equation: Y=(A+((B−A)/(1+((X/C)^D)))) where X is the logarithm of inhibitor concentration and Y is the response.
The data in Table 1 was measured in wild-type un-phosphorylated FGFR3 protein.

wild-type un-phosphorylated FGFR3 protein, sequence (P22607 23-806): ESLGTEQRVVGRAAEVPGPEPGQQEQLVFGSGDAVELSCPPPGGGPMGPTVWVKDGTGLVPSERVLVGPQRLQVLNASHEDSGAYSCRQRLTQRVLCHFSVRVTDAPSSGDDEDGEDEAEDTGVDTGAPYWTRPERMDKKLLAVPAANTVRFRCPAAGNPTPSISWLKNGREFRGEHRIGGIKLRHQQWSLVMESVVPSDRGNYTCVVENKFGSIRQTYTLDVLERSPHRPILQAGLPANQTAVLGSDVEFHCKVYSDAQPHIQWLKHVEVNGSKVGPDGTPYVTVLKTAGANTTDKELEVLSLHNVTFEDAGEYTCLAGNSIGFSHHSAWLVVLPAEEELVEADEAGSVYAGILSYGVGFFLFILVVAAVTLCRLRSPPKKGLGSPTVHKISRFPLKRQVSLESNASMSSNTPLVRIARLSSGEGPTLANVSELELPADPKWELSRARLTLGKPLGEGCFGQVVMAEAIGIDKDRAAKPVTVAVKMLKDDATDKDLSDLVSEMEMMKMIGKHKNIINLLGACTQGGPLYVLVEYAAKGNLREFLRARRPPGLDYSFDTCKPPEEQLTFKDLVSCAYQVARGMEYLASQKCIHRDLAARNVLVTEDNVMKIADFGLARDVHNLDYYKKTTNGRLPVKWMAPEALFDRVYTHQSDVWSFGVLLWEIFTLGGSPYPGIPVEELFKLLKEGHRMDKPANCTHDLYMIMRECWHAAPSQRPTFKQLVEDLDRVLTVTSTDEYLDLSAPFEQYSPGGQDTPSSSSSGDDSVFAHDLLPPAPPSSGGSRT

As to `O=C(N1CCOCC1)N1CC[C@H](n2cc(-c3cnc4ccn5c(CO)c(-c6c(Cl)cccc6Cl)nc5c4c3)cn2)C1` [Example 57, (S)-(3-(4-(2-(2,6-Dichlorophenyl)-3-(hydroxymethyl)imidazo[2,1-f][1,6]naphthyridin-9-yl)-1H-pyrazol-1-yl)pyrrolidin-1-yl)(morpholino)methanone], the Ki was less than 10 nM.

Consider `CC(O)c1c(-c2c(Cl)cccc2Cl)nc2c3cc(-c4cnn([C@H]5CCN(C(=O)CO)C5)c4)cnc3ccn12` (stereo partly drawn) [Example 58, 1-((3S)-3-(4-(2-(2,6-dichlorophenyl)-3-(1-hydroxyethyl)imidazo[2,1-f][1,6]naphthyridin-9-yl)-1H-pyrazol-1-yl)pyrrolidin-1-yl)-2-hydroxyethan-1-one], for which the Ki was less than 10 nM.

Turning to `Cc1c(-c2c(Cl)cccc2Cl)nc2c3cc(-c4cnn(C56CCN(C(=O)CO)CC5C6)c4)cnc3ccn12` (centres unmarked) [Example 59, 1-(6-(4-(2-(2,6-Dichlorophenyl)-3-methylimidazo[2,1-f][1,6]naphthyridin-9-yl)-1H-pyrazol-1-yl)-3-azabicyclo[4.1.0]heptan-3-yl)-2-hydroxyethan-1-one], the Ki was less than 10 nM.

As for `CC(=O)N1CCC2CC2(n2cc(-c3cnc4ccn5c(C)c(-c6c(Cl)cccc6Cl)nc5c4c3)cn2)C1` (centres unmarked) [Example 60, 1-(1-(4-(2-(2,6-Dichlorophenyl)-3-methylimidazo[2,1-f][1,6]naphthyridin-9-yl)-1H-pyrazol-1-yl)-3-azabicyclo[4.1.0]heptan-3-yl)ethan-1-one], the Ki was less than 10 nM.

As for `Cc1c(-c2c(Cl)cccc2Cl)nc2c3cc(-c4ccc(C5CN(C(=O)CO)C5)nc4)cnc3ccn12` [Example 61, 1-(3-(5-(2-(2,6-Dichlorophenyl)-3-methylimidazo[2,1-f][1,6]naphthyridin-9-yl)pyridin-2-yl)azetidin-1-yl)-2-hydroxyethan-1-one], the Ki was in the range of 10 to 100 nM.

Turning to `CC(=O)N1CC(c2cncc(-c3cnc4ccn5c(C)c(-c6c(Cl)cccc6Cl)nc5c4c3)c2)C1` [Example 62, 1-(3-(5-(2-(2,6-Dichlorophenyl)-3-methylimidazo[2,1-f][1,6]naphthyridin-9-yl)pyridin-3-yl)azetidin-1-yl)ethan-1-one], the Ki was 10 to 100 nM.

Consider `CC(=O)N1CC(c2ccc(-c3cnc4ccn5c(C)c(-c6c(Cl)cccc6Cl)nc5c4c3)cc2)C1` [Example 63], for which the Ki is less than 10 nM.

On to `CC(=O)N1CC[C@H](n2cc(-c3cnc4ccn5c(CO)c(-c6ccccc6Cl)nc5c4c3)cn2)C1` [Example 64, (S)-1-(3-(4-(2-(2-Chlorophenyl)-3-(hydroxymethyl)imidazo[2,1-f][1,6]naphthyridin-9-yl)-1H-pyrazol-1-yl)pyrrolidin-1-yl)ethan-1-one], for which the Ki was less than 10 nM.

For the molecule `CC(C)c1c(-c2ccccc2Cl)nc2c3cc(-c4cnn([C@H]5CCN(C(=O)CO)C5)c4)cnc3ccn12` [Example 65, (S)-1-(3-(4-(2-(2-Chlorophenyl)-3-isopropylimidazo[2,1-f][1,6]naphthyridin-9-yl)-1H-pyrazol-1-yl)pyrrolidin-1-yl)-2-hydroxyethan-1-one], the Ki is 10 to 100 nM.

Consider `O=C(CO)N1CC[C@H](n2cc(-c3cnc4ccn5c(Br)c(-c6c(F)cccc6Cl)nc5c4c3)cn2)C1` [Example 66, (S)-1-(3-(4-(3-Bromo-2-(2-chloro-6-fluorophenyl)imidazo[2,1-f][1,6]naphthyridin-9-yl)-1H-pyrazol-1-yl)pyrrolidin-1-yl)-2-hydroxyethan-1-one], for which the Ki was less than 10 nM.

Take `Cc1c(C2CC2)nc2c3cc(-c4cnn(C)c4)cnc3ccn12` [Example 67, 2-Cyclopropyl-3-methyl-9-(1-methyl-1H-pyrazol-4-yl)imidazo[2,1-f][1,6]naphthyridine]: the Ki was in the range of 100 to 400 nM.

As to `Cn1cc(-c2cnc3ccn4c(CO)c(-c5c(Cl)cccc5Cl)nc4c3c2)cn1` [Example 68, (2-(2,6-Dichlorophenyl)-9-(1-methyl-1H-pyrazol-4-yl)imidazo[2,1-f][1,6]naphthyridin-3-yl)methanol], the Ki is less than 10 nM.

Take `OCc1c(-c2c(Cl)cccc2Cl)nc2c3cc(-c4cnn(C5CC5)c4)cnc3ccn12` [Example 69, (9-(1-Cyclopropyl-1H-pyrazol-4-yl)-2-(2,6-dichlorophenyl)imidazo[2,1-f][1,6]naphthyridin-3-yl)methanol]: the Ki is less than 10 nM.

Turning to `OCc1c(-c2c(Cl)cccc2Cl)nc2c3cc(-c4cnn(C5CCOC5)c4)cnc3ccn12` (centres unmarked) [Example 70, (2-(2,6-Dichlorophenyl)-9-(1-(tetrahydrofuran-3-yl)-1H-pyrazol-4-yl)imidazo[2,1-f][1,6]naphthyridin-3-yl)methanol], the Ki is less than 10 nM.

On to `OCc1c(-c2c(Cl)cccc2Cl)nc2c3cc(-c4cnn(C5COC5)c4)cnc3ccn12` [Example 71, (2-(2,6-Dichlorophenyl)-9-(1-(oxetan-3-yl)-1H-pyrazol-4-yl)imidazo[2,1-f][1,6]naphthyridin-3-yl)methanol], for which the Ki was less than 10 nM.

With `CN(C)CCn1cc(-c2cnc3ccn4c(CO)c(-c5c(Cl)cccc5Cl)nc4c3c2)cn1` [Example 72, (2-(2,6-Dichlorophenyl)-9-(1-(2-(dimethylamino)ethyl)-1H-pyrazol-4-yl)imidazo[2,1-f][1,6]naphthyridin-3-yl)methanol], the Ki is less than 10 nM.

In the case of `CC(C)n1cc(-c2cnc3ccn4c(CO)c(-c5c(Cl)cccc5Cl)nc4c3c2)cn1` [Example 73, (2-(2,6-Dichlorophenyl)-9-(1-isopropyl-1H-pyrazol-4-yl)imidazo[2,1-f][1,6]naphthyridin-3-yl)methanol], the Ki was less than 10 nM.

Turning to `OCc1c(-c2c(Cl)cccc2Cl)nc2c3cc(-c4cnn(C(F)F)c4)cnc3ccn12` [Example 74, (2-(2,6-Dichlorophenyl)-9-(1-(difluoromethyl)-1H-pyrazol-4-yl)imidazo[2,1-f][1,6]naphthyridin-3-yl)methanol], the Ki is less than 10 nM.

Turning to `N#CCCn1cc(-c2cnc3ccn4c(CO)c(-c5c(Cl)cccc5Cl)nc4c3c2)cn1` [Example 75, 3-(4-(2-(2,6-Dichlorophenyl)-3-(hydroxymethyl)imidazo[2,1-f][1,6]naphthyridin-9-yl)-1H-pyrazol-1-yl)propanenitrile], the Ki is less than 10 nM.

On to `CC(C)(O)Cn1cc(-c2cnc3ccn4c(CO)c(-c5c(Cl)cccc5Cl)nc4c3c2)cn1` [Example 76, 1-(4-(2-(2,6-Dichlorophenyl)-3-(hydroxymethyl)imidazo[2,1-f][1,6]naphthyridin-9-yl)-1H-pyrazol-1-yl)-2-methylpropan-2-ol], for which the Ki was less than 10 nM.

With `N#CCn1cc(-c2cnc3ccn4c(CO)c(-c5c(Cl)cccc5Cl)nc4c3c2)cn1` [Example 77, 2-(4-(2-(2,6-Dichlorophenyl)-3-(hydroxymethyl)imidazo[2,1-f][1,6]naphthyridin-9-yl)-1H-pyrazol-1-yl)acetonitrile], the Ki was less than 10 nM.

Regarding `CN1CCC(n2cc(-c3cnc4ccn5c(CO)c(-c6c(Cl)cccc6Cl)nc5c4c3)cn2)CC1` [Example 78, (2-(2,6-Dichlorophenyl)-9-(1-(1-methylpiperidin-4-yl)-1H-pyrazol-4-yl)imidazo[2,1-f][1,6]naphthyridin-3-yl)methanol], the Ki is less than 10 nM.

For the molecule `CC(C)(CO)n1cc(-c2cnc3ccn4c(CO)c(-c5c(Cl)cccc5Cl)nc4c3c2)cn1` [Example 79, 2-(4-(2-(2,6-Dichlorophenyl)-3-(hydroxymethyl)imidazo[2,1-f][1,6]naphthyridin-9-yl)-1H-pyrazol-1-yl)-2-methylpropan-1-ol], the Ki is less than 10 nM.
